Bounds are passed on as bounds.

By IC50 is commonly meant the midpoint of a concentration-inhibition curve. A lower IC50 goes with inhibition by little substance.

For the test, the target named is T1, TGF-beta receptor type-1 (Homo sapiens, UniProt P36897).
T1 sequence (P36897 whole entry): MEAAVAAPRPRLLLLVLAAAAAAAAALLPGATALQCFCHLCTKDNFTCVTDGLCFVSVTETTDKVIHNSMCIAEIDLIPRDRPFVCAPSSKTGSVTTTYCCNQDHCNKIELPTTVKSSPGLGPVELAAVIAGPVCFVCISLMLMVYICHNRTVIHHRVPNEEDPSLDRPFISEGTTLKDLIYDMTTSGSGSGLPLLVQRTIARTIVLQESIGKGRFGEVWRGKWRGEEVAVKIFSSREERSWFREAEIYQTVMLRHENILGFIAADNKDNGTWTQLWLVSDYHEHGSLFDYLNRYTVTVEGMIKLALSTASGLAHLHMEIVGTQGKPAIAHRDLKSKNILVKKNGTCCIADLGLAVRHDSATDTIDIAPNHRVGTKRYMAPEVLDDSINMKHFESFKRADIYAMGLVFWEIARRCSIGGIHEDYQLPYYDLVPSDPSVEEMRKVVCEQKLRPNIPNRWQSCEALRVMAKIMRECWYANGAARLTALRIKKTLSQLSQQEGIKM
The experiment in a line: In vitro Assay. As to the method:
The enzymatic activity of compounds of the present invention was monitored measuring the formation of ADP using the ADP-GLO Kinases assay. Following the incubation of the purified enzyme, a substrate and ATP, the produced ADP was converted into ATP, which in turn was converted into light by Ultra-Glo Luciferase. The luminescent signal positively correlated with ADP amount and kinase activity.
`Cc1nnc(-c2cc(Cl)ccc2F)cc1Nc1ccnc(NC(=O)CCN2CCNC(C(=O)O)C2)c1` (configuration not stated) [US20240018122, Example 92] had an IC50 of less than 1 nM.
The result for `Cc1nnc(-c2cc(Cl)ccc2F)cc1Nc1ccnc(NC(=O)CCN2CC[N+](C)(C)CC2)c1` [US20240018122, Example 110] reads less than 1 nM; that for `CN1CCN(CCN(C)C(=O)c2cc3c(Nc4cnnc(-c5cc(Cl)ccc5F)c4)ccnc3[nH]2)CC1` [US20240018122, Example 40], less than 1 nM; that for `OCCC(CCO)N1CCN(CCOc2ccc3c(Nc4cnnc(-c5cc(Cl)ccc5F)c4)ccnc3c2)CC1` [US20240018122, Example 86], less than 1 nM.
The result for `Cc1nnc(-c2cc(Cl)ccc2F)cc1Nc1ccnc(NC(=O)CCN2CCN(CCS(C)(=O)=O)CC2)c1` [US20240018122, Example 83] reads less than 1 nM.
The result for `Cc1nnc(-c2cc(Cl)ccc2F)cc1Nc1ccnc(NC(=O)C2CC2)c1` [US20240018122, Example 15] reads less than 1 nM; that for `Cc1nnc(-c2cc(Cl)ccc2F)cc1Nc1ccnc(NC(=O)NCC2CCN(C)CC2)c1` [US20240018122, Example 142], less than 1 nM.

The values above are taken from BindingDB's records for patent US20240018122 (Chiesi Farmaceutici, 2024).
